Experimental data taken from patent US12404239B2, “Modulators of BCL6 as ligand directed degraders” (Celgene Corporation, priority 2022, dated 2025).

target: T1, BCL6 (Homo sapiens, UniProt P41182); test: BCL6_HiBiT degradation assay (2 h); assay type: cell-based; conditions: DHL-4_BCL6_HiBiT cells, read-out: YCon (% remaining maximal effect)
T1 construct: HiBiT-tag knocked into endogenous BCL6 locus using CRISPR; endogenous in cells; host or cells: DHL-4_BCL6_HiBiT cells (CRISPR knock-in)
Method in brief: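 DHL-4 cells carrying CRISPR HiBiT knock-in at endogenous BCL6, treated 2 h at 37 °C with 10-point 3-fold dilutions from 1-10 μM. BCL6 level read by Nano-Glo HiBiT lytic luminescence normalized to DMSO; four-parameter fit gives degradation EC50 and Yconstant (% remaining at maximal effect).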

SMILES	Percent BCL6 remaining at maximal degradation (Ycon) [%]
Cn1nc(C2CCC(=O)NC2=O)c2ccc(NC3CCN(c4ncc(Cl)c(Nc5ccc6c(c5)CC(=O)N6CCO)n4)CC3)cc21 (stereo not drawn) [Example 41, 3-[6-[[1-[5-chloro-4-[[1-(2-hydroxyethyl)-2-oxo-indolin-5-yl]amino]pyrimidin-2-yl]-4-piperidyl]amino]-1-methyl-indazol-3-yl]piperidine-2,6-dione]	20 to 60
CN1C(=O)Cc2cc(Nc3nc(N4CC[C@H](Nc5ccc6c(C7CCC(=O)NC7=O)nn(C)c6c5)[C@@H](F)C4)ncc3Cl)ccc21 (stereo partly drawn) [Example 42, 3-(6-(((3S,4S)-1-(5-chloro-4-((1-methyl-2-oxoindolin-5-yl)amino)pyrimidin-2-yl)-3-fluoropiperidin-4-yl)amino)-1-methyl-1H-indazol-3-yl)piperidine-2,6-dione]	20 to 60
CN1C(=O)Cc2cc(Nc3nc(N4CC[C@H](Nc5ccc6c(C7CCC(=O)NC7=O)nn(C)c6c5)[C@H](F)C4)ncc3Cl)ccc21 (stereo partly drawn) [Example 43, 3-(6-(((3R,4S)-1-(5-Chloro-4-((1-methyl-2-oxoindolin-5-yl)amino)pyrimidin-2-yl)-3-fluoropiperidin-4-yl)amino)-1-methyl-1H-indazol-3-yl)piperidine-2,6-dione]	> 60
CN1C(=O)Cc2cc(Nc3nc(N4CC[C@@H](Nc5ccc6c(C7CCC(=O)NC7=O)nn(C)c6c5)[C@@H](F)C4)ncc3Cl)ccc21 (stereo partly drawn) [Example 44, 3-(6-(((3S,4R)-1-(5-chloro-4-((1-methyl-2-oxoindolin-5-yl)amino)pyrimidin-2-yl)-3-fluoropiperidin-4-yl)amino)-1-methyl-1H-indazol-3-yl)piperidine-2,6-dione]	> 60
CN1C(=O)Cc2cc(Nc3nc(N4CC[C@@H](Nc5ccc6c(C7CCC(=O)NC7=O)nn(C)c6c5)[C@H](F)C4)ncc3Cl)ccc21 (stereo partly drawn) [Example 45, 3-(6-(((3R,4R)-1-(5-chloro-4-((1-methyl-2-oxoindolin-5-yl)amino)pyrimidin-2-yl)-3-fluoropiperidin-4-yl)amino)-1-methyl-1H-indazol-3-yl)piperidine-2,6-dione]	20 to 60
CN1C(=O)Cc2cc(Nc3nc(N4CC[C@@H](N(C)c5ccc6c(C7CCC(=O)NC7=O)nn(C)c6c5)[C@H](F)C4)ncc3Cl)ccc21 (stereo partly drawn) [Example 46, 3-[6-[[(3R,4R)-1-[5-Chloro-4-[(1-methyl-2-oxo-indolin-5-yl)amino]pyrimidin-2-yl]-3-fluoro-4-piperidyl]-methyl-amino]-1-methyl-indazol-3-yl]piperidine-2,6-dione]	> 60
CC1CCN(c2ncc(Cl)c(Nc3ccc4c(c3)CC(=O)N4C)n2)CCC1Nc1ccc2c(C3CCC(=O)NC3=O)nn(C)c2c1 (stereo not drawn) [Example 47, 3-(6-((1-(5-chloro-4-((1-methyl-2-oxoindolin-5-yl)amino)pyrimidin-2-yl)-5-methylazepan-4-yl)amino)-1-methyl-1H-indazol-3-yl)piperidine-2,6-dione]	> 60
CN1C(=O)Cc2cc(Nc3nc(N4CCC(Nc5ccc6c(C7CCC(=O)NC7=O)nn(C)c6c5)CC4)ncc3Cl)ccc21 (stereo not drawn) [Example 52, 3-(6-((1-(5-chloro-4-((1-methyl-2-oxoindolin-5-yl)amino)pyrimidin-2-yl)piperidin-4-yl)amino)-1-methyl-1H-indazol-3-yl)piperidine-2,6-dione]	20 to 60
CN1C(=O)Cc2cc(Nc3nc(N4CC[C@@H](Nc5ccc6c(C7CCC(=O)NC7=O)nn(C)c6n5)[C@H](O)C4)ncc3Cl)ccc21 (stereo partly drawn) [Example 55, 3-(6-(((3R,4R)-1-(5-chloro-4-((1-methyl-2-oxoindolin-5-yl)amino)pyrimidin-2-yl)-3-hydroxypiperidin-4-yl)amino)-1-methyl-1H-pyrazolo[3,4-b]pyridin-3-yl)piperidine-2,6-dione]	20 to 60
